The text below walks through data of PubChem BioAssay AID720671 (NMMLSC, 2013).

Molecules are shown by their SMILES.

The test concerns the target Botulinum neurotoxin type F light chain protease (Clostridium botulinum). As to the kind of experiment: BoNT/F light chain protease inhibitors, dose response, biochemical, multiplex microsphere, Powder Set 03 (AID 720671). Particulars: multiplex microsphere protease cleavage assay, BoNT/F LC.

Turning to `COc1ccc(-c2nc3nc(-c4cccc(F)c4)cn3nc2-c2ccc(OC)cc2)cc1`, the EC50 was 4.4 µM.

A word on the EC50: it is the midpoint of the concentration-response curve.
